From patent US8822446B2, “Pyrrolopyridine inhibitors of kinases” (AbbVie Inc., priority 2010, dated 2014)

Target: T1, Cdc7 (BEV coexpressed huCDC7/DBF4) (Homo sapiens, UniProt O00311)
T1 construct: made in house; host or cells: baculovirus expression vector (BEV) co-expression
Experiment: Cdc7 enzyme inhibition assay ([33P]-ATP, biotinylated peptide substrate, FlashPlate)
Format: biochemical
Settings: Ki generated from IC50 assuming ATP-competitive inhibition; 1 μM ATP, apparent ATP Km 0.7 μM; 1 hr reaction
Protocol: This example describes the assays that may be used to identify compounds having kinase activity.
Cdc7 (BEV coexpressed huCDC7/DBF4) is prepared internally. Cdc7 assays are conducted as follows with final concentrations as listed. In 384-well v-bottom polypropylene plates, 6 μL compound (2% DMSO), is mixed with 6 μL of Cdc7 (2 ug/mL), and Jerini peptide substrate A-A11 (biotin-C6linker-[…]) (2 μM), followed by immediate initiation with 6 μL […] (1 μM, 20 mCi/μmol) using a reaction buffer comprising 25 mM HEPES, pH 7.5, 1 mM DTT, 10 mM MgCl2, 100 μM, Na3VO4, 0.075 mg/ml Triton X-100. Reactions are quenched after 1 hr by the addition of 90 μL stop buffer (50 mM EDTA, 2M NaCl).
Table 1 depicts enzyme inhibition data (Ki) for exemplary compounds.

T1 sequence (O00311 whole entry): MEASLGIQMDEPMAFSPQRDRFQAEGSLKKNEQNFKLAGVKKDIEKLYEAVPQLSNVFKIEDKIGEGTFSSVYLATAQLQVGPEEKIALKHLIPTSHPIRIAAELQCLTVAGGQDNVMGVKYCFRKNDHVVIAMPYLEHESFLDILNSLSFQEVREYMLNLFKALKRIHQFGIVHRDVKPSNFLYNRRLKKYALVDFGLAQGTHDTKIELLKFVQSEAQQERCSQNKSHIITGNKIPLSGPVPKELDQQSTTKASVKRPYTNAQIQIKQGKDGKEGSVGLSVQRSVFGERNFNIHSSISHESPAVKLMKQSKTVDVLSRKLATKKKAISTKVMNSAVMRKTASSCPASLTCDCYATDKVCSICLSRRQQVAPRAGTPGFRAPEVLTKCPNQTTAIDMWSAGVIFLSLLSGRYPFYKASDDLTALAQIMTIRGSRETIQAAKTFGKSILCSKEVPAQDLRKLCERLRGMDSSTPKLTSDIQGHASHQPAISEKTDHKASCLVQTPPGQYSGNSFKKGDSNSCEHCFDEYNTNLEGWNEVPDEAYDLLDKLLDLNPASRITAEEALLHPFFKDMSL
T1 sequence (Q9UBU7 whole entry partner): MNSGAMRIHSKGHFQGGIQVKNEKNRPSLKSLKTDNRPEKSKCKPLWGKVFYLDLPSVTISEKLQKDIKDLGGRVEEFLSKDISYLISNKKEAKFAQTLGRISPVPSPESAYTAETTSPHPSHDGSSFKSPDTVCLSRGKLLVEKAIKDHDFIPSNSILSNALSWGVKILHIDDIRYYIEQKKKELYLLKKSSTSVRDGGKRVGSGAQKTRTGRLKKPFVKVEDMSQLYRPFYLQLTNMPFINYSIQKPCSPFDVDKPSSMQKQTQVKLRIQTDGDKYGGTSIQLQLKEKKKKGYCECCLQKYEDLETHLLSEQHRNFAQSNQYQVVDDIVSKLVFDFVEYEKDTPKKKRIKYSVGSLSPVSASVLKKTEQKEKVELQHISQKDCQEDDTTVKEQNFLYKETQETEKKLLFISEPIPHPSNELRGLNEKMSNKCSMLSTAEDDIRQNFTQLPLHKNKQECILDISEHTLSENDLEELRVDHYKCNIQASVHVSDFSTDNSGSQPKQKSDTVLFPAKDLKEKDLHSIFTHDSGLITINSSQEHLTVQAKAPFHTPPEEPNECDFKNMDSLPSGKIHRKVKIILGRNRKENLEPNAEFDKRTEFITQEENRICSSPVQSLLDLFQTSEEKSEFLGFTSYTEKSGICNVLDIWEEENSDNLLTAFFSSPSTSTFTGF

| Structure (SMILES) | Ki [µM] |
| --- | --- |
| O=c1cc(-c2c[nH]c3ncccc23)nc(NCc2ccccc2C(F)(F)F)[nH]1 [Example 20, 6-(1H-pyrrolo[2,3-b]pyridin-3-yl)-2-{[2-(trifluoromethyl)benzyl]amino}pyrimidin-4(3H)-one] | < 0.01 |
| O=c1cc(-c2c[nH]c3ncccc23)nc(NC2CCCCCC2)[nH]1 [Example 14, 2-(cycloheptylamino)-6-(1H-pyrrolo[2,3-b]pyridin-3-yl)pyrimidin-4(3H)-one] | < 0.01 |
| Cc1ccc(-c2nc(-c3c[nH]c4ncccc34)cc(=O)[nH]2)cc1 [Example 60, 2-(4-methylphenyl)-6-(1H-pyrrolo[2,3-b]pyridin-3-yl)pyrimidin-4(3H)-one] | < 0.01 |
| O=c1cc(-c2c[nH]c3ncccc23)cc(-c2ccc(Cl)cc2F)[nH]1 [Example 45, 6-(4-chloro-2-fluorophenyl)-4-(1H-pyrrolo[2,3-b]pyridin-3-yl)pyridin-2(1H)-one] | < 0.01 |
| Cc1c(Cl)cccc1-c1cc(-c2c[nH]c3ncccc23)cc(=O)[nH]1 [Example 48, 6-(3-chloro-2-methylphenyl)-4-(1H-pyrrolo[2,3-b]pyridin-3-yl)pyridin-2(1H)-one] | < 0.01 |
| O=c1cc(-c2c[nH]c3ncccc23)nc(-c2ccccc2)[nH]1 [Example 32, 2-phenyl-6-(1H-pyrrolo[2,3-b]pyridin-3-yl)pyrimidin-4(3H)-one] | < 0.01 |
| O=c1cc(-c2c[nH]c3ncccc23)nc(NC2CCNCC2)[nH]1 [Example 6, 2-(piperidin-4-ylamino)-6-(1H-pyrrolo[2,3-b]pyridin-3-yl)pyrimidin-4(3H)-one] | < 0.01 |
| Cc1cccc(-c2nc(-c3c[nH]c4ncccc34)cc(=O)[nH]2)c1 [Example 61, 2-(3-methylphenyl)-6-(1H-pyrrolo[2,3-b]pyridin-3-yl)pyrimidin-4(3H)-one] | < 0.01 |
| O=c1cc(-c2c[nH]c3ncccc23)cc(-c2cccc(OC(F)(F)F)c2)[nH]1 [Example 35, 4-(1H-pyrrolo[2,3-b]pyridin-3-yl)-6-[3-(trifluoromethoxy)phenyl]pyridin-2(1H)-one] | < 0.01 |
| COc1ccc(C(F)(F)F)cc1-c1cc(-c2c[nH]c3ncccc23)cc(=O)[nH]1 [Example 46, 6-[2-methoxy-5-(trifluoromethyl)phenyl]-4-(1H-pyrrolo[2,3-b]pyridin-3-yl)pyridin-2(1H)-one] | < 0.01 |

Second part, the compound after the results:

| Ki [µM] | Structure (SMILES) |
| --- | --- |
| < 0.01 | O=c1cc(-c2c[nH]c3ncccc23)nc(N2CCC(O)CC2)[nH]1 [Example 7, 2-(4-hydroxypiperidin-1-yl)-6-(1H-pyrrolo[2,3-b]pyridin-3-yl)pyrimidin-4(3H)-one] |
| < 0.01 | COc1nccc(-c2cc(-c3c[nH]c4ncccc34)cc(=O)[nH]2)c1Cl [Example 49, 3′-chloro-2′-methoxy-4-(1H-pyrrolo[2,3-b]pyridin-3-yl)-2,4′-bipyridin-6(1H)-one] |
| < 0.01 | O=C(O)C1CCN(c2nc(-c3c[nH]c4ncccc34)cc(=O)[nH]2)CC1 [Example 25, 1-[6-oxo-4-(1H-pyrrolo[2,3-b]pyridin-3-yl)-1,6-dihydropyrimidin-2-yl]piperidine-4-carboxylic acid] |
| < 0.01 | Cc1cccc(-c2cc(-c3c[nH]c4ncccc34)cc(=O)[nH]2)c1C [Example 37, 6-(2,3-dimethylphenyl)-4-(1H-pyrrolo[2,3-b]pyridin-3-yl)pyridin-2(1H)-one] |
| < 0.01 | O=c1cc(-c2c[nH]c3ncccc23)cc(-c2cccc(C(F)(F)F)c2)[nH]1 [Example 36, 4-(1H-pyrrolo[2,3-b]pyridin-3-yl)-6-[3-(trifluoromethyl)phenyl]pyridin-2(1H)-one] |
| < 0.01 | O=c1cc(-c2c[nH]c3ncccc23)cc(-c2ccc3c(c2)OCO3)[nH]1 [Example 39, 6-(1,3-benzodioxol-5-yl)-4-(1H-pyrrolo[2,3-b]pyridin-3-yl)pyridin-2(1H)-one] |
| < 0.01 | O=c1cc(-c2c[nH]c3ncccc23)nc(NC2CCCCC2O)[nH]1 (centres unmarked) [Example 28, 2-[(2-hydroxycyclohexyl)amino]-6-(1H-pyrrolo[2,3-b]pyridin-3-yl)pyrimidin-4(3H)-one] |
| < 0.01 | N[C@H]1CC[C@H](Nc2nc(-c3c[nH]c4ncccc34)cc(=O)[nH]2)CC1 [Example 4, 2-[(trans-4-aminocyclohexyl)amino]-6-(1H-pyrrolo[2,3-b]pyridin-3-yl)pyrimidin-4(3H)-one] |
| < 0.01 | COCCNc1nc(-c2c[nH]c3ncccc23)cc(=O)[nH]1 [Example 18, 2-[(2-methoxyethyl)amino]-6-(1H-pyrrolo[2,3-b]pyridin-3-yl)pyrimidin-4(3H)-one] |
| < 0.01 | COc1cccc(Nc2cc(-c3c[nH]c4ncccc34)cc(=O)[nH]2)c1 [Example 54, 6-[(3-methoxyphenyl)amino]-4-(1H-pyrrolo[2,3-b]pyridin-3-yl)pyridin-2(1H)-one] |
| < 0.01 | COc1cccc(-c2cc(-c3c[nH]c4ncccc34)cc(=O)[nH]2)c1OC [Example 43, 6-(2,3-dimethoxyphenyl)-4-(1H-pyrrolo[2,3-b]pyridin-3-yl)pyridin-2(1H)-one] |
| < 0.01 | O=c1cc(-c2c[nH]c3ncccc23)nc(NCCCN2CCOCC2)[nH]1 [Example 22, 2-{[3-(morpholin-4-yl)propyl]amino}-6-(1H-pyrrolo[2,3-b]pyridin-3-yl)pyrimidin-4(3H)-one] |
| < 0.01 | O=c1cc(-c2c[nH]c3ncccc23)nc(NCC2CCCO2)[nH]1 (centres unmarked) [Example 10, 6-(1H-pyrrolo[2,3-b]pyridin-3-yl)-2-[(tetrahydrofuran-2-ylmethyl)amino]pyrimidin-4(3H)-one] |
